Experimental data from patent US9125913B2, “Bcl-2-selective apoptosis-inducing agents for the treatment of cancer and immune diseases” (AbbVie Inc., priority 2008, dated 2015).

System: GST-Bcl-2
Assay: TR-FRET binding assay, Bcl-2
Conditions: TR-FRET Ki values
Method in brief: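 Compounds serially diluted in DMSO from 50 μM (2× starting concentration, 10% DMSO), mixed with GST-tagged protein, F-Bak peptide probe and Tb-labeled antibody, incubated 3 h at room temperature.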

Row | Compound | Binding selectivity ratio (Bcl-XL Ki/Bcl-2 Ki)
1 | CC1(C)CCC(CN2CCN(c3ccc(C(=O)NS(=O)(=O)c4cnc(NCC5(F)CCOCC5)c(Cl)c4)c(Oc4cccc5[nH]ncc45)c3)CC2)=C(c2ccc(Cl)cc2)C1 [EXAMPLE 413, N-[(5-chloro-6-{[(4-fluorotetrahydro-2H-pyran-4-yl)methyl]amino}pyridin-3-yl)sulfonyl]-4-(4-{[2-(4-chlorophenyl)-4,4-dimethylcyclohex-1-en-1-yl]methyl}piperazin-1-yl)-2-(1H-indazol-4-yloxy)benzamide] | 803.8
2 | CC1(C)CCC(CN2CCN(c3ccc(C(=O)NS(=O)(=O)c4ccc(NCC5CCOCC5)c([N+](=O)[O-])c4)c(Oc4ccc5[nH]ccc5c4)c3)CC2)=C(c2ccc(Cl)cc2)C1 [Example 177, 4-(4-{[2-(4-chlorophenyl)-4,4-dimethylcyclohex-1-en-1-yl]methyl}piperazin-1-yl)-2-(1H-indol-5-yloxy)-N-({3-nitro-4-[(tetrahydro-2H-pyran-4-ylmethyl)amino]phenyl}sulfonyl)benzamide] | 799.7
3 | CC1(C)CCC(CN2CCN(c3ccc(C(=O)NS(=O)(=O)c4ccc(NC5CCN(CC6CC6)CC5)c([N+](=O)[O-])c4)c(Oc4ccc5[nH]ccc5c4)c3)CC2)=C(c2ccc(Cl)cc2)C1 [EXAMPLE 214, 4-(4-{[2-(4-chlorophenyl)-4,4-dimethylcyclohex-1-en-1-yl]methyl}piperazin-1-yl)-N-[(4-{[1-(cyclopropylmethyl)piperidin-4-yl]amino}-3-nitrophenyl)sulfonyl]-2-(1H-indol-5-yloxy)benzamide] | 776.6
4 | CC1(C)CCC(CN2CCN(c3ccc(C(=O)NS(=O)(=O)c4ccc(NCCCN5CCNC(=O)C5)c([N+](=O)[O-])c4)c(Oc4ccc5[nH]ccc5c4)c3)CC2)=C(c2ccc(Cl)cc2)C1 [EXAMPLE 222, 4-(4-{[2-(4-chlorophenyl)-4,4-dimethylcyclohex-1-en-1-yl]methyl}piperazin-1-yl)-2-(1H-indol-5-yloxy)-N-[(3-nitro-4-{[3-(3-oxopiperazin-1-yl)propyl]amino}phenyl)sulfonyl]benzamide] | 1275.3
5 | CN1CCC(O)(CNc2ccc(S(=O)(=O)NC(=O)c3ccc(N4CCN(CC5=C(c6ccc(Cl)cc6)CC(C)(C)CC5)CC4)cc3Oc3cccc4[nH]ccc34)cc2[N+](=O)[O-])CC1 [EXAMPLE 186, 4-(4-{[2-(4-chlorophenyl)-4,4-dimethylcyclohex-1-en-1-yl]methyl}piperazin-1-yl)-N-[(4-{[(4-hydroxy-1-methylpiperidin-4-yl)methyl]amino}-3-nitrophenyl)sulfonyl]-2-(1H-indol-4-yloxy)benzamide] | 1069.2
6 | CN1CCC(Nc2ccc(S(=O)(=O)NC(=O)c3ccc(N4CCN(CC5=C(c6ccc(Cl)cc6)CC(C)(C)CC5)CC4)c(F)c3Oc3ccc4[nH]ccc4c3)cc2[N+](=O)[O-])CC1 [EXAMPLE 184, 4-(4-{[2-(4-chlorophenyl)-4,4-dimethylcyclohex-1-en-1-yl]methyl}piperazin-1-yl)-3-fluoro-2-(1H-indol-5-yloxy)-N-({4-[(1-methylpiperidin-4-yl)amino]-3-nitrophenyl}sulfonyl)benzamide] | >2345.3
7 | COCCNc1ccc(S(=O)(=O)NC(=O)c2ccc(N3CCN(CC4=C(c5ccc(Cl)cc5)CC(C)(C)CC4)CC3)cc2Oc2cccc3[nH]ccc23)cc1[N+](=O)[O-] [EXAMPLE 239, 4-(4-{[2-(4-chlorophenyl)-4,4-dimethylcyclohex-1-en-1-yl]methyl}piperazin-1-yl)-2-(1H-indol-4-yloxy)-N-({4-[(2-methoxyethyl)amino]-3-nitrophenyl}sulfonyl)benzamide] | 430.9
8 | CN(C)CCCNc1ccc(S(=O)(=O)NC(=O)c2ccc(N3CCN(Cc4ccccc4-c4ccc(Cl)cc4)CC3)cc2Oc2ccccc2)cc1C#N [Example 90, 4-{4-[(4′-chloro-1,1′-biphenyl-2-yl)methyl]piperazin-1-yl}-N-[(3-cyano-4-{[3-(dimethylamino)propyl]amino}phenyl)sulfonyl]-2-phenoxybenzamide] | 133
9 | CN(C)CCCOc1ccc(-c2ccc(Cl)cc2)c(CN2CCN(c3ccc(C(=O)NS(=O)(=O)c4ccc(NCC5CCOCC5)c([N+](=O)[O-])c4)c(Oc4ccccc4)c3)CC2)c1 [Example 116, 4-[4-({4′-chloro-4-[3-(dimethylamino)propoxy]-1,1′-biphenyl-2-yl}methyl)piperazin-1-yl]-N-({3-nitro-4-[(tetrahydro-2H-pyran-4-ylmethyl)amino]phenyl}sulfonyl)-2-phenoxybenzamide] | 230.7
10 | O=C(NS(=O)(=O)c1ccc(N2C(=O)C3CCC3C2=O)cc1)c1ccc(N2CCN(Cc3ccccc3-c3ccc(Cl)cc3)CC2)cc1Oc1ccccc1 (centres unmarked) [Example 28, 4-{4-[(4′-chloro-1,1′-biphenyl-2-yl)methyl]piperazin-1-yl}-N-{[4-(2,4-dioxo-3-azabicyclo[3.2.0]hept-3-yl)phenyl]sulfonyl}-2-phenoxybenzamide] | >19.6
11 | CC1(C)CCC(CN2CCN(c3ccc(C(=O)NS(=O)(=O)c4ccc(OCC5(F)CCOCC5)c([N+](=O)[O-])c4)c(Oc4cccc5[nH]ccc45)c3)CC2)=C(c2ccc(Cl)cc2)C1 [EXAMPLE 306, 4-(4-{[2-(4-chlorophenyl)-4,4-dimethylcyclohex-1-en-1-yl]methyl}piperazin-1-yl)-N-({4-[(4-fluorotetrahydro-2H-pyran-4-yl)methoxy]-3-nitrophenyl}sulfonyl)-2-(1H-indol-4-yloxy)benzamide] | 622
12 | C[C@H](c1ccccc1-c1ccc(Cl)cc1)N1CCN(c2ccc(C(=O)NS(=O)(=O)c3ccc(NCC4CCOCC4)c([N+](=O)[O-])c3)c(Oc3cccc4[nH]ccc34)c2)CC1 [EXAMPLE 255, 4-{4-[(1R)-1-(4′-chloro-1,1′-biphenyl-2-yl)ethyl]piperazin-1-yl}-2-(1H-indol-4-yloxy)-N-({3-nitro-4-[(tetrahydro-2H-pyran-4-ylmethyl)amino]phenyl}sulfonyl)benzamide] | >84.2
13 | CN(C)C1CCC(Nc2ccc(S(=O)(=O)NC(=O)c3ccc(N4CCN(CC5=C(c6ccc(Cl)cc6)CC(C)(C)CC5)CC4)cc3Oc3cccc4[nH]ccc34)cc2[N+](=O)[O-])CC1 (centres unmarked) [EXAMPLE 202, 4-(4-{[2-(4-chlorophenyl)-4,4-dimethylcyclohex-1-en-1-yl]methyl}piperazin-1-yl)-N-[(4-{[4-(dimethylamino)cyclohexyl]amino}-3-nitrophenyl)sulfonyl]-2-(1H-indol-4-yloxy)benzamide] | 97.1
14 | CC1(C)CC(c2ccc(Cl)cc2)=C(CN2CCN(c3ccc(C(=O)NS(=O)(=O)c4cnc(OCC5(F)CCOCC5)c(Cl)c4)c(Oc4cccc5[nH]ncc45)c3)CC2)CO1 [EXAMPLE 465, N-({5-chloro-6-[(4-fluorotetrahydro-2H-pyran-4-yl)methoxy]pyridin-3-yl}sulfonyl)-4-(4-{[4-(4-chlorophenyl)-6,6-dimethyl-5,6-dihydro-2H-pyran-3-yl]methyl}piperazin-1-yl)-2-(1H-indazol-4-yloxy)benzamide] | 1472
15 | CN1CCC(Nc2ccc(S(=O)(=O)NC(=O)c3ccc(N4CCN(CC5=C(c6ccc(Cl)cc6)CC(C)(C)CC5)CC4)cc3Oc3cccc4[nH]cnc34)cc2[N+](=O)[O-])CC1 [EXAMPLE 418, 2-(1H-benzimidazol-4-yloxy)-4-(4-{[2-(4-chlorophenyl)-4,4-dimethylcyclohex-1-en-1-yl]methyl}piperazin-1-yl)-N-({4-[(1-methylpiperidin-4-yl)amino]-3-nitrophenyl}sulfonyl)benzamide] | 404.7
16 | O=C(NS(=O)(=O)c1ccc(NC2CCN(S(=O)(=O)c3ccccc3)CC2)c([N+](=O)[O-])c1)c1ccc(N2CCN(Cc3ccccc3-c3ccc(Cl)cc3)CC2)cc1Oc1ccccc1 [Example 157, 4-{4-[(4′-chloro-1,1′-biphenyl-2-yl)methyl]piperazin-1-yl}-N-[(3-nitro-4-{[1-(phenylsulfonyl)piperidin-4-yl]amino}phenyl)sulfonyl]-2-phenoxybenzamide] | >148.2
17 | CC(C)Oc1cc(-c2ccc(Cl)cc2)c(CN2CCN(c3ccc(C(=O)NS(=O)(=O)c4ccc(NCC5CCOCC5)c([N+](=O)[O-])c4)c(Oc4ccc5[nH]ccc5c4)c3)CC2)cn1 [EXAMPLE 330, 4-(4-{[4-(4-chlorophenyl)-6-isopropoxypyridin-3-yl]methyl}piperazin-1-yl)-2-(1H-indol-5-yloxy)-N-({3-nitro-4-[(tetrahydro-2H-pyran-4-ylmethyl)amino]phenyl}sulfonyl)benzamide] | >8.8
18 | O=C(NS(=O)(=O)c1ccc(NCC2CCOCC2)c([N+](=O)[O-])c1)c1ccc(N2CCN(Cc3cc(OCCO)ccc3-c3ccc(Cl)cc3)CC2)cc1Oc1cccc2[nH]ccc12 [EXAMPLE 213, 4-(4-{[4′-chloro-4-(2-hydroxyethoxy)-1,1′-biphenyl-2-yl]methyl}piperazin-1-yl)-2-(1H-indol-4-yloxy)-N-({3-nitro-4-[(tetrahydro-2H-pyran-4-ylmethyl)amino]phenyl}sulfonyl)benzamide] | >66000
19 | COCCNc1ccc(S(=O)(=O)NC(=O)c2ccc(N3CCN(CC4=C(c5ccc(Cl)cc5)CC(C)(C)CC4)CC3)cc2Oc2ccc3[nH]ccc3c2)cc1[N+](=O)[O-] [Example 179, 4-(4-{[2-(4-chlorophenyl)-4,4-dimethylcyclohex-1-en-1-yl]methyl}piperazin-1-yl)-2-(1H-indol-5-yloxy)-N-({4-[(2-methoxyethyl)amino]-3-nitrophenyl}sulfonyl)benzamide] | >3642.4
20 | CC1(C)CCC(CN2CCN(c3ccc(C(=O)NS(=O)(=O)c4ccc(NC5CCN(C6CCOCC6)CC5)c([N+](=O)[O-])c4)c(Oc4ccc5[nH]ccc5c4)c3F)CC2)=C(c2ccc(Cl)cc2)C1 [EXAMPLE 185, 4-(4-{[2-(4-chlorophenyl)-4,4-dimethylcyclohex-1-en-1-yl]methyl}piperazin-1-yl)-3-fluoro-2-(1H-indol-5-yloxy)-N-({3-nitro-4-[(1-tetrahydro-2H-pyran-4-ylpiperidin-4-yl)amino]phenyl}sulfonyl)benzamide] | 361.5
